This note sets out measurements from PubChem BioAssay AID2005 (Sanford-Burnham Center for Chemical Genomics, 2009).

The experiment in a line: EGFP reporter destabilization counter-screen – F442A EGFP cells, fluorescence, counter-screen for p/CIP destabilizer project, dose response (AID 2005).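 Further: cells express EGFP alone from a CMV promoter as a counter screen for p/CIP-EGFP.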 As to conditions: F442A EGFP cells, EGFP fluorescence, 16 h, stronger effect = higher value.

Molecules are shown by their SMILES. The source made the active and inactive calls.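 How the source made its calls: active means plate Z score at or below -3, or inhibition of at least 30% at 20 µM; inactive means the rest.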

On to `COc1cccc(/C=N/n2c(C3CCCCC3)n[nH]c2=S)c1O`, for which the inhibition (as a rule, the relative decrease from the control value, in per cent) is, setting by setting: (EGFP decrease, at 10 µM) 1.4%; (at 20 µM) 27.7% (inactive).
`CC(=O)NCCNC(=O)c1ccc(CSc2nc3ccccc3s2)cc1`: the inhibition was 15.9% (EGFP decrease, at 10 µM) and 16.6% (inactive) (at 20 µM).
On to `CC(=O)Nc1cn(C(C)=O)c(C)n1`, for which the inhibition reads like this: (EGFP decrease, at 10 µM) 5.9%; (at 20 µM) 33.7%.
With `COc1ccc(CNC2CCCCC2)cc1`, the inhibition is 26% (EGFP decrease, at 10 µM) and 20.4% (inactive) (at 20 µM).
Consider `COc1ccc2[nH]c(=O)c(-c3noc(-c4ccccc4)n3)cc2c1`, for which the inhibition was 22.9% (EGFP decrease, at 10 µM) and 9.8% (inactive) (at 20 µM).
For `CCN1C(=O)OC2(CCCCC2)C1(C)O` (centres undefined), the inhibition by setting is: (EGFP decrease, at 10 µM) -1.9%; (at 20 µM) 9% (inactive).
As to `CCOC(=O)N1CCN(S(=O)(=O)c2cc(OCC)ccc2OCC)CC1`, the inhibition runs as follows: (EGFP decrease, at 10 µM) -19.2%; (at 20 µM) 5.4% (inactive).
On to `CCC(C(=O)NC1CCCCCC1)n1nc(C)n2c(cc3occc32)c1=O` (centres undefined), for which the inhibition is, setting by setting: (EGFP decrease, at 10 µM) 2.6%; (at 20 µM) 5.5% (inactive).
In the same order, the values of `O=S(=O)(NCc1cn2ccccc2n1)c1cccs1` are 8.4% and -3.1% (inactive).
For `CN(C(=O)c1ccc2c(c1)CCN2S(C)(=O)=O)c1ccccc1` the same measures were -5.5% and -19.7% (inactive).
In the same order, the values of `Cc1ccccc1Cn1c(C)nc2ccccc21` are 29.8% and 39%.
In the case of `CC(OC(=O)c1cccc(-n2cnnn2)c1)C(=O)N(C)c1ccccc1` (centres undefined), the inhibition (EGFP decrease, at 10 µM) came to 23.3% and the inhibition (at 20 µM) is 6% (inactive).
In the same order, the values of `CCOC(=O)C1CCN(C(=O)c2cc(OCC)c(OCC)c(OCC)c2)CC1` are 10.4% and 24.3% (inactive).
For `O=C1C(=O)c2ccc(-c3ccccc3)cc2-c2ccccc21` the same measures were -14.4% and 2.4% (inactive).
In the case of `c1ccc(-c2cn3c(n2)CCc2ccc4cccnc4c2-3)cc1`, the inhibition is, setting by setting: (EGFP decrease, at 10 µM) -17.2%; (at 20 µM) -5% (inactive).
With `CCC1CCCCN1C(=O)NC(=O)c1ccccc1` (centres undefined), the inhibition was 14.3% (EGFP decrease, at 10 µM) and 5.4% (inactive) (at 20 µM).
Turning to `CCCCOc1ccc(/C(O)=C2/C(=O)C(=O)N(CCCOC)C2c2ccncc2)cc1` (centres undefined), the inhibition (EGFP decrease, at 10 µM) was found to be 5.3% and the inhibition (at 20 µM) was -10.4% (inactive).
`CN(C)c1ccc(C(=O)Nc2cc(C(F)(F)F)ccc2-n2cncn2)cc1`: the inhibition by setting is: (EGFP decrease, at 10 µM) 5%; (at 20 µM) 10.4% (inactive).
`CC(=O)N/C(=C/c1ccc2c(c1)OCO2)C(=O)NCCCO`: the inhibition is, setting by setting: (EGFP decrease, at 10 µM) 1.2%; (at 20 µM) 2% (inactive).
In the same order, the values of `N#Cc1cn(CC(=O)NCCc2c[nH]c3ccccc23)c2ccccc12` are 10.9% and -0.3% (inactive).
`C=CCc1cccc2cc(C(=O)NC)c(=O)oc12`: the inhibition runs as follows: (EGFP decrease, at 10 µM) 12.9%; (at 20 µM) 30.8%.
In the case of `Cc1c(NC(=O)CSc2ncccn2)c(=O)n(-c2ccccc2)n1C`, the inhibition reads like this: (EGFP decrease, at 10 µM) 15.5%; (at 20 µM) 17.7% (inactive).
Turning to `CCN(CC(=O)N1CCOCC1)S(=O)(=O)c1ccccc1`, the inhibition was 7.2% (EGFP decrease, at 10 µM) and -27.6% (inactive) (at 20 µM).
As to `COC(=O)[C@@H](Cc1c[nH]c2ccccc12)NC(=O)C1CCCN(S(=O)(=O)c2ccc(C)cc2)C1` (some centres undefined), the inhibition is -7.3% (EGFP decrease, at 10 µM) and 19.7% (inactive) (at 20 µM).
Regarding `CCOC(=O)CSc1nc2ccccc2c(=O)n1CCCCCC(=O)NCc1ccco1`, the inhibition runs as follows: (EGFP decrease, at 10 µM) 8.4%; (at 20 µM) 5.8% (inactive).
`Cc1cc(NC(=O)CSCC(=O)OCc2nnc(-c3ccccc3)o2)no1`: the inhibition by setting is: (EGFP decrease, at 10 µM) -7.9%; (at 20 µM) -12.8% (inactive).
For `Cc1cc(/N=C/N(C)C)on1` the same measures were 20.8% and -23.7% (inactive).
